# Measurements reported in US7838527B2, “Methods of treating cancer and related methods” (Novartis Vaccines and Diagnostics, Inc., priority 2002, dated 2010).
# Where two headings read alike, the source gives them in different places.
# Experiments:
# [1] = Plasma pharmacokinetics in KM12L4a tumor-bearing mice; type: in vivo; conditions: 300 mg/kg/day p.o.; Day 18; from 3 concentration-time pairs
# [2] = tested on: PC3 human prostate tumor
# [3] = Compound 1 and metabolite levels in pooled rat plasma, 2 week toxicology study; type: in vivo; conditions: metabolites estimated by UV; for concentration at 0 h / concentration at 24 h: rat, plasma, po, read-out: Level in Rat Plasma
# [4] = Metabolite profile in monkey plasma, multiple oral dose study; type: in vivo; conditions: for level in plasma: compound 1 5 mg/kg BID oral (10 mg/kg/day), Day 1, metabolite estimated by UV
# [5] = 30 mg/kg, compound 1 30 mg/kg PO once a day, Day 1
# [6] = 100 mg/kg, compound 1 100 mg/kg PO once a day, Day 1
# [7] = 100 mg/kg, compound 1 100 mg/kg PO once a day, Day 14
AUC [1] [ng·h/mL],"detection of metabolite in plasma ([4]; monkey, compound 1 5 mg/kg BID oral, day 1 and 14 samples)",level in plasma ([4]; pooled 0 hr) [ng/mL],"level in plasma ([4]; pooled 1, 2 hr) [ng/mL]","level in plasma ([4]; pooled 4, 8 hr) [ng/mL]","level in plasma ([4]; pooled 12, 13, 14, 16, 20, 24 hr) [ng/mL]",SMILES,% TGI vs. vehicle ([2]; 100 mpk q 2 days) [%],% TGI vs. vehicle ([2]; 100 mpk q 3 days) [%],% TGI vs. vehicle ([2]; 100 mpk q 4 days) [%],"concentration at 0 h [3, 5] [ng/mL]","concentration at 0 h [3, 6] [ng/mL]","concentration at 24 h [3, 6] [ng/mL]","concentration at 0 h [3, 7] [ng/mL]","concentration at 24 h [3, 7] [ng/mL]","Level in Rat Plasma ([3]; compound 1 30 mg/kg PO once a day, Day 1, 1-2 hr) [ng/mL]","Level in Rat Plasma ([3]; compound 1 30 mg/kg PO once a day, Day 1, 4-8 hr) [ng/mL]","Level in Rat Plasma ([3]; compound 1 100 mg/kg PO once a day, Day 14, 1-2 hr) [ng/mL]","Level in Rat Plasma ([3]; compound 1 100 mg/kg PO once a day, Day 14, 4-8 hr) [ng/mL]"
58400,–,–,–,–,–,CN1CCN(c2ccc3nc(-c4c(N)c5c(F)cccc5[nH]c4=O)[nH]c3c2)CC1 [Compound 1],75,68,66,–,–,–,–,–,–,–,–,–
–,not detected,–,–,–,–,"C[N+]1([O-])CCN(c2ccc3nc(-c4c(N)c5c(F)cccc5[nH]c4=O)[nH]c3c2)CC1 [Compound 2, 4-amino-5-fluoro-3-[6-(4-methyl-4-oxidopiperazin-1-yl)-1H-benzimidazol-2-yl]quinolin-2(1H)-one]",–,–,–,0,0,137,67,102,–,–,–,–
–,–,0,8.5,31,10,"Nc1c(-c2nc3ccc(N4CCNCC4)cc3[nH]2)c(=O)[nH]c2cccc(F)c12 [Compound 3, 4-amino-5-fluoro-3-[6-(piperazin-1-yl)-1H-benzimidazol-2-yl]quinolin-2(1H)-one]",–,–,–,0,0,83,15,10,14,48,17,19
